The values that follow come from article PMC11124136, “New Thiazolidine-4-One Derivatives as SARS-CoV-2 Main Protease Inhibitors” (Pharmaceuticals, 2024).

For the assay, the target named is SARS-CoV-2 Mpro (Severe acute respiratory syndrome coronavirus 2, UniProt P0DTD1). Nature of the assay: biochemical. Type of assay: biochemical. Particulars: for SARS-CoV-2 Mpro inhibition, result in words: inactivity = IC50 > 30 μM; for IC50: FRET assay, concentration reducing Mpro activity by 50%, mean ± SD of three independent experiments, highest concentration tested 30 μM.

The term IC50 denotes the concentration that gives 50% inhibition. A lower IC50 goes with greater potency.

On to `O=C1CSC(c2ccc([N+](=O)[O-])cc2)N1CCc1cccc(F)c1` (stereo not drawn) [Compound 4c, 2-(4-nitrophenyl)-3-(3-fluorophenylethyl)-1,3-thiazolidin-4-one], for which the “SARS-CoV-2 Mpro inhibition, result in words” value (“SARS-CoV-2 Mpro inhibition” below) was “inactive”.

With `O=C1CSC(c2ccc([N+](=O)[O-])cc2)N1CCc1ccccc1` (stereo not drawn) [Compound 4a, 2-(4-nitrophenyl)-3-(phenylethyl)-1,3-thiazolidin-4-one], the “SARS-CoV-2 Mpro inhibition” value is “inactive”.

The compound `O=C1CSC(c2ccc([N+](=O)[O-])cc2)N1CCc1ccccc1Cl` (stereo not drawn) [Compound 4g] had a 50% inhibitory concentration (IC50) of 26 ± 4 µM.

As for `O=C1CSC(c2ccc([N+](=O)[O-])cc2)N1CCc1ccc(Cl)cc1` (stereo not drawn) [Compound 4i], the IC50 is above 30 µM and the “SARS-CoV-2 Mpro inhibition” value was “inactive”.

For the compound `COc1ccc(CCN2C(=O)CSC2c2ccc([N+](=O)[O-])cc2)cc1` (stereo not drawn) [Compound 4f], the IC50 is above 30 µM and the “SARS-CoV-2 Mpro inhibition” value was “inactive”.

For the compound `COc1ccccc1CCN1C(=O)CSC1c1ccc([N+](=O)[O-])cc1` (stereo not drawn) [Compound 4e], the IC50 was above 30 µM and the “SARS-CoV-2 Mpro inhibition” value was “inactive”.
